The assay has as its target T1, MePqqB (Methylobacterium extorquens PqqB, Me PqqB) (Methylorubrum extorquens, UniProt Q49149).
T1 sequence (Q49149 1-299): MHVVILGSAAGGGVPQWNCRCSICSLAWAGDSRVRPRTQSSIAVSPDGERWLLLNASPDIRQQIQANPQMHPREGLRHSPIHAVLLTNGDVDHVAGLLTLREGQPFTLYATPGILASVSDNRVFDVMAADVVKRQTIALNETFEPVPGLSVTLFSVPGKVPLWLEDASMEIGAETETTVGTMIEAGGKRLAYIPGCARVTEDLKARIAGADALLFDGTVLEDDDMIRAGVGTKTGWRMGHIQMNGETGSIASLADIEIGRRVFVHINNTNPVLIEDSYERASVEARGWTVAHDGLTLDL
The experiment in a line: isothermal titration calorimetry. In kind it is binding. On the technique in general: Isothermal titration calorimetry measures the heat released or taken up as one component is titrated into another.

By Kd is commonly meant the concentration at which binding is half-saturated. Higher therefore signals lower affinity. The molecule `N[C@@H](CSc1cc(C[C@H](N)C(=O)O)cc(O)c1O)C(=O)O` [Cys-DOPA] displayed a Kd of about 200 nM.

For the origin of these results see PMC6944208 (Journal of the American Chemical Society, 2019).
